According to US12320800B2, “High-throughput automation of organoids for identifying therapeutic strategies” (UNIVERSITY OF WASHINGTON, priority 2018, dated 2025):
Entries after “also recorded” stand apart in the source; their conditions may differ.

Experiments:
[1] = test system: myosin; conditions: Table 5 listing; cited from earlier work
[2] = test system: PKD1−/− and PKD2−/− mutant organoids; experiment: Prophylactic effect of myosin activators on cyst formation in PKD organoids in suspension; type: cell-based, human
Source text: (§1) Cyst formation. In adherent cultures (untreated), ‘cysts’ were identified as large, balloon-like, translucent structures that swayed in response to agitation. Flat rings and dilated tubules were not counted as cysts and occasionally appeared even in non-PKD controls. […] Wells were imaged using a Nikon TiE inverted wide-field microscope and cysts were quantified using ImageJ cell counter. To generate large cysts in suspension, adherent organoids were microdissected with a 23-gauge syringe needle from 24-well plates on an inverted phase-contrast microscope, and carefully transferred using a transfer pipette into a low-adhesion 6-well plate (Corning) containing 2 ml RB. The organoids were isolated on the twenty-first day of differentiation, before cysts formed. RB media was changed by gravity every three days, and cystogenesis was assessed at two weeks after replating.
EMD was efficient at rescuing cyst formation at the lowest dose tested (3 μM) and worked in both PKD1^−/− and PKD2^−/− mutant organoids.

[3] = test system: Polycystic Kidney Disease (PKD) patients; conditions: cited from earlier work
[4] = test system: PKD organoids or isogenic controls; experiment: Cyst formation in adherent kidney organoids treated with forskolin or 8-Br-cAMP; type: cell-based, human
Source text: as §1

[5] = test system: endothelial cells (ECs) in kidney organoid cultures
Method: Kidney differentiation in microwell plates. hPSCs were dissociated with Accutase (Stem Cell Technologies) and plated onto microwell plates pre-coated with GelTrex in mTeSR1 supplemented with 10 mMRho-kinase inhibitor Y27632 (StemGent). The media was replaced with mTeSR1+1.5% GelTrex at 16 hours, 12 mMCHIR99021 in Advanced RPMI+Glutamax (Life Technologies) at 60 hours, and RB (Advanced RPMI+Glutamax+B27 Supplement, from Life Technologies) at 96 hours. […] RB was changed two days later and every three days thereafter. For experiments involving modulation of endothelial cell media was supplemented with VEGF165 (Peprotech, 12.5 to 200 ng/ml). Alternatively (Protocol B, FIG. 31A), the protocol described by Takasato et al. was adapted for adherent culture: undifferentiated hPSCs were plated overnight and treated the following morning with 8 mM CHIR99021 in APEL media (StemCell Technologies) for 48-72 hr, 30 ng/ml FGF9 (Peprotech)+1 mg/ml heparin (StemCellTechnologies) in APEL for 96 hr, and cultured thereafter in APEL, replaced every three days. Alternatively, to generate endothelial cells without kidney organoids, 100,000 hPSCs/cm2 were plated in mTeSR1+10 mM Y27632+1 mM CHIR99021, replaced with RPMI+B27 minus insulin+1.5% Geltrex+50 ng/mL Activin A (R&D) at 24 h, RPMI+B27 minus insulin+40 ng/mL BMP4 (Peprotech)+1 mL CHIR99021 at 61 h, and StemPro 34 (Thermo Fisher Scientific)+2 mM Glutamax+50 mg/mL ascorbic acid (Sigma)+10 ng/mL BMP4+5 ng/mL bFGF (Peprotech)+300 ng/mL VEGF165 at 85 h for a 72-hour incubation.
Immunohistochemistry. For confocal microscopy, kidney organoids were differentiated on 96-well No, 1.5 coverslip glass-bottom plates (Mat-Tek). To fix, an equal volume of 8% paraformaldehyde (Electron Microscopy Sciences) was added to the culture media (4% final concentration) for 15 minutes at room temperature. […] Fluorescence images were captured using an inverted Nikon epifluorescence Eclipse Ti or A1R confocal microscope. […]

[6] = scRNA-seq, in the presence of VEGF

For CCCC[C@@H](C=O)NC(=O)[C@H](CC(C)C)NC(=O)OCc1ccccc1 [calpeptin], the effect [1] is given as “↑ Rho-kinase”.

For C[C@@H](O)[C@@H]1NC(=O)[C@H](CCCCN)NC(=O)[C@@H](Cc2c[nH]c3ccccc23)NC(=O)[C@H](Cc2ccccc2)NC(=O)[C@@H](NC(=O)[C@H](N)Cc2ccccc2)CSSC[C@@H](C(=O)N[C@H](CO)[C@@H](C)O)NC1=O [octreotide], the “effect on PKD organoid cysts” value [2] was “the same effect is not seem; also recorded: do not affect PKD cysts”.

In the case of Cc1ccccc1C(=O)Nc1ccc(C(=O)N2CCCC(O)c3cc(Cl)ccc32)c(C)c1 (stereo not shown) [Tolvaptan], the “effect on PKD cysts (shrinking / prevention)” value ([3]; PKD patients) is listed as “does not shrink PKD cysts or prevent them from forming”, the “improve glomerular filtration rate (GFR)” value ([3]; PKD patients) is listed as roughly 1.5 ml/min/yr and the side effects ([3]; PKD patients) is listed as “can damage the liver; also recorded: frequent thirst and occasional severe hepatotoxicity”. For the same compound, the “slow the growth of total kidney volume (TKV)” value ([3]; PKD patients) was roughly 3 %/yr and the “effect on PKD, cyst growth” value ([3]; patients with severe disease) was 3 % year.

In the case of COC(=O)N1CCN(Cc2cccc(NC(=O)Nc3ccc(C)nc3)c2F)CC1 [omecamtiv mercabil], the “effect on PKD organoid cysts” value [2] is listed as “the same effect is not seem; also recorded: do not affect PKD cysts”, the “effect on cyst growth in PKD1−/− organoids” value ([2]; 20 μM, highest dose tried (FIG. 22)) is listed as “ineffective at the highest dose that was tried” and the effect [1] is listed as “↑ cardiac myosin S1”.

For CNc1ccc2oc(C[C@H]3O[C@@]4(CC[C@H]3C)O[C@H]([C@H](C)C(=O)c3ccc[nH]3)[C@H](C)C[C@H]4C)nc2c1C(=O)O [calcium ionophore], the effect [1] is listed as “↑ calmodulin”.

For CCCCC[C@H](O)/C=C/[C@@H]1[C@@H](C/C=C\CCCC(=O)O)[C@H]2CO[C@@H]1C2 [U46619], the effect [1] is listed as “↑ Rho-kinase”.

With Nc1ncnc2c1nc(Br)n2[C@@H]1O[C@@H]2COP(=O)(O)O[C@H]2[C@H]1O [8-Br-cAMP] the “doses that did not produce cysts” value ([4]; PKD or control organoids, adherent) was less than 1 mM and the “swelling of adherent organoids into cyst-like structures” value ([4]; adherent cultures, added on day 21 of differentiation) was “induced swelling, although the effect was much less pronounced”.

For N#C/C(=C\c1cc(O)c(O)c(O)c1)C(=O)NCCCNC(=O)/C(C#N)=C/c1cc(O)c(O)c(O)c1 [Bis-T-23], the effect [1] is listed as “↑ actin polymerization”.

For VEGF, the “increase in ECs expressing CD31 and VE-cadherin” value ([5]; VEGF added during differentiation, immunofluorescence) was “approximately 10 fold”, the “MCAM+ cells, share of all cells” value [5, 6] was 5% and the “MCAM+ cells, share of cells within the six kidney clusters” value [5, 6] was 9.5%.

In the case of O=S(=O)(NCCNC/C=C/c1ccc(Br)cc1)c1cccc2cnccc12 [H-89], the effect [1] is listed as “↓ PKA”.
